In patent US20240158446A1, “CYCLIC COMPOUND HAVING SELECTIVE INHIBITORY ACTION ON KRAS OVER HRAS AND NRAS” (CHUGAI SEIYAKU KABUSHIKI KAISHA, priority 2021, published 2024):
Where two headings read alike, the source gives them in different places.

What was measured:
[1] = biological target: GDP-bound KRAS wild-type protein (Homo sapiens, UniProt P01116); experiment: Binding to KRAS by surface plasmon resonance (SPR), Single Cycle Kinetics; settings: GDP-bound KRAS wild-type protein, read-out: KRAS KD
[2] = biological target: GDP-bound NRAS wild-type protein (Homo sapiens, UniProt P01111); experiment: Binding to NRAS by surface plasmon resonance (SPR), Single Cycle Kinetics; settings: for NRAS/KRAS (ratio of KD value for NRAS to KD value for KRAS): SPR, GDP-bound NRAS wild-type protein vs GDP-bound KRAS wild-type protein; for NRAS/KRAS (ratio of KD value with respect to GDP-bound NRAS wild-type protein to KD value with respect to KRAS): SPR KD ratio NRAS/KRAS, class symbols
[3] = biological target: GDP-bound HRAS wild-type protein (Homo sapiens, UniProt P01112); experiment: Binding to HRAS by surface plasmon resonance (SPR), Single Cycle Kinetics; settings: for HRAS/KRAS (ratio of KD value for HRAS to KD value for KRAS): SPR, GDP-bound HRAS wild-type protein vs GDP-bound KRAS wild-type protein; for HRAS/KRAS (ratio of KD value with respect to GDP-bound HRAS wild-type protein to KD value with respect to KRAS): SPR KD ratio HRAS/KRAS, class symbols
[4] = system: human lung cancer strain NCI-H441;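 further: cell proliferation inhibition after four days measured by CellTiter-Glo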
[5] = SPR Single Cycle Kinetics, 1:1 binding model

Chain of GDP-bound HRAS wild-type protein (P01112 whole entry): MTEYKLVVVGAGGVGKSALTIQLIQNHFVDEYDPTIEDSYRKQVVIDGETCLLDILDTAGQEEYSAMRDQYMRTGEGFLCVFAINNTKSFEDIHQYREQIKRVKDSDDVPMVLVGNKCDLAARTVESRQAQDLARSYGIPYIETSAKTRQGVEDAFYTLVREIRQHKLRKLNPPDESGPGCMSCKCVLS
Chain of GDP-bound KRAS wild-type protein (P01116 whole entry): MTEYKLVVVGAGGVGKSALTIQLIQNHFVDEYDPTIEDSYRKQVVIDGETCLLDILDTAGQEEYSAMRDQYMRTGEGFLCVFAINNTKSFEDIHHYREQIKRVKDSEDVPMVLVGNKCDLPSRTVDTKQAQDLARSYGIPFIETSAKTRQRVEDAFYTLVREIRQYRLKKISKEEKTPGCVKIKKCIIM
Chain of GDP-bound NRAS wild-type protein (P01111 whole entry): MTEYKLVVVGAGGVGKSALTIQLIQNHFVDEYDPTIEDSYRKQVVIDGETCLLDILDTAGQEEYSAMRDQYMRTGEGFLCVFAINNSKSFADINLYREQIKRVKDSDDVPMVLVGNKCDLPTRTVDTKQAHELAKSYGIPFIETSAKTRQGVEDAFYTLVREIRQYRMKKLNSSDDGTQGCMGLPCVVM

CCOC[C@H]1C(=O)N[C@@H]([C@@H](C)CC)C(=O)N(C)CC(=O)N(C)[C@H]2C/C=C\CCN(C2=O)[C@@H](Cc2ccc(C)cc2)C(=O)N(C)CC(=O)N[C@@H](CCc2ccc(C(F)(F)F)c(OC)c2)C(=O)N2C[C@H](C)C[C@H]2C(=O)NC2(CC(C)(C)C2)C(=O)N(C)[C@@H](C2CCCC2)C(=O)N(C)[C@H](C(=O)N(C)C)CC(=O)N1C [PP2393]
Kd ([1]; SPR, Single Cycle Kinetics): 0.12 nM
NRAS/KRAS (ratio of KD value for NRAS to KD value for KRAS) [2]: A (a compound having 10 or more and less than 20 is denoted as A)
HRAS/KRAS (ratio of KD value for HRAS to KD value for KRAS) [3]: A (a compound having 10 or more and less than 20 is denoted as A)
IC50 [4]: 28.2 nM

CCC[C@H]1C(=O)N[C@@H]([C@@H](C)CC)C(=O)N2CCC[C@H]2C(=O)N(C)[C@H]2C/C=C\CCN(C2=O)[C@@H](Cc2ccc(C(F)F)cc2)C(=O)N(C)CC(=O)N[C@@H](CCc2ccc(Cl)c(Cl)c2)C(=O)N2C[C@H](OCC)C[C@H]2C(=O)NC2(CC(C)(C)C2)C(=O)N(C)[C@@H](C(CC)CC)C(=O)N(C)[C@H](C(=O)N(C)C)CC(=O)N1C [PP2637]
Kd [1, 5]: 1 nM
NRAS/KRAS (ratio of KD value with respect to GDP-bound NRAS wild-type protein to KD value with respect to KRAS) [2]: AA (a compound having 20 or more is denoted as AA)
HRAS/KRAS (ratio of KD value with respect to GDP-bound HRAS wild-type protein to KD value with respect to KRAS) [3]: A (a compound having 10 or more and less than 20 is denoted as A)
IC50 [4]: 61.4 nM

CCOC[C@H]1C(=O)N[C@@H]([C@@H](C)CC)C(=O)N(C)CC(=O)N(C)[C@H]2C/C=C\CCN(C2=O)[C@@H](Cc2ccc(C)cc2)C(=O)N(C)CC(=O)N[C@@H](CCc2cc(F)c(C(F)(F)F)c(F)c2)C(=O)N2C[C@@H](C)C[C@H]2C(=O)NC2(CC(C)(C)C2)C(=O)N(C)[C@@H](C2CCCC2)C(=O)N(C)[C@H](C(=O)N(CC)CC)CC(=O)N1C [PP2407]
Kd ([1]; SPR, Single Cycle Kinetics): 0.5 nM
NRAS/KRAS (ratio of KD value for NRAS to KD value for KRAS) [2]: A (a compound having 10 or more and less than 20 is denoted as A)
HRAS/KRAS (ratio of KD value for HRAS to KD value for KRAS) [3]: A (a compound having 10 or more and less than 20 is denoted as A)
IC50 [4]: 60.1 nM

CCC[C@H]1C(=O)N[C@@H]([C@@H](C)CC)C(=O)N2C[C@@H](OC)C[C@H]2C(=O)N(C)[C@H]2C/C=C\CCN(C2=O)[C@@H](Cc2ccc(C)cc2)C(=O)N(C)CC(=O)N[C@@H](CCc2cc(F)c(C(F)(F)F)c(F)c2)C(=O)N2C[C@H](OCC)C[C@H]2C(=O)NC2(CC(C)(C)C2)C(=O)N(C)[C@@H](C2CCCC2)C(=O)N(C)[C@H](C(=O)N(C)C)CC(=O)N1C [PP2556]
Kd [1, 5]: 0.21 nM
NRAS/KRAS (ratio of KD value with respect to GDP-bound NRAS wild-type protein to KD value with respect to KRAS) [2]: A (a compound having 10 or more and less than 20 is denoted as A)
HRAS/KRAS (ratio of KD value with respect to GDP-bound HRAS wild-type protein to KD value with respect to KRAS) [3]: B (a compound having 3 or more and less than 10 is denoted as B)
IC50 [4]: 9.4 nM

CCC[C@H]1C(=O)N[C@@H]([C@@H](C)CC)C(=O)N2CCC[C@H]2C(=O)N(C)[C@H]2C/C=C\CCN(C2=O)[C@@H](CC2CCC(F)(F)CC2)C(=O)N(C)CC(=O)N[C@@H](CCc2ccc(C(F)(F)F)c(OC)c2)C(=O)N2C[C@H](OCC)C[C@H]2C(=O)N(C)C2(CCC2)C(=O)N(C)[C@@H](C2CCCC2)C(=O)N(C)[C@H](C(=O)N(C)C)CC(=O)N1C [PP2356]
Kd ([1]; SPR, Single Cycle Kinetics): 0.94 nM
NRAS/KRAS (ratio of KD value for NRAS to KD value for KRAS) [2]: A (a compound having 10 or more and less than 20 is denoted as A)
HRAS/KRAS (ratio of KD value for HRAS to KD value for KRAS) [3]: A (a compound having 10 or more and less than 20 is denoted as A)
IC50 [4]: 14.7 nM

CCC[C@H]1C(=O)N[C@@H]([C@@H](C)CC)C(=O)N(C)CC(=O)N(C)[C@H]2C/C=C\CCN(C2=O)[C@@H](CC2CCCCC2)C(=O)N(C)CC(=O)N[C@@H](CCc2cc(F)c(C(F)(F)F)c(F)c2)C(=O)N2C[C@H](OCC)C[C@H]2C(=O)NC2(CCC2)C(=O)N(C)[C@@H](C2CCCC2)C(=O)N(C)[C@H](C(=O)N(C)C)CC(=O)N1C [PP1464]
Kd ([1]; SPR, Single Cycle Kinetics, 1:1 binding model): 0.15 nM
NRAS/KRAS (ratio of KD value for NRAS to KD value for KRAS) ([2]; KD ratio class): A (a compound having 10 or more and less than 20 is denoted as A)
HRAS/KRAS (ratio of KD value for HRAS to KD value for KRAS) ([3]; KD ratio class): A (a compound having 10 or more and less than 20 is denoted as A)
IC50 [4]: 32.3 nM

CCC[C@H]1C(=O)N[C@@H](CC(C)C)C(=O)N(CC)CC(=O)N(C)[C@H]2C/C=C\CCN(C2=O)[C@@H](Cc2ccc(C)cc2)C(=O)N(C)CC(=O)N[C@@H](CCc2ccc(C(F)(F)F)c(OC)c2)C(=O)N2C[C@H](OCC)C[C@H]2C(=O)NC2(CCC2)C(=O)N(C)[C@@H](C2CCCC2)C(=O)N(C)[C@H](C(=O)N(C)C)CC(=O)N1C [PP2540]
Kd [1, 5]: 4.6 nM
NRAS/KRAS (ratio of KD value with respect to GDP-bound NRAS wild-type protein to KD value with respect to KRAS) [2]: A (a compound having 10 or more and less than 20 is denoted as A)
HRAS/KRAS (ratio of KD value with respect to GDP-bound HRAS wild-type protein to KD value with respect to KRAS) [3]: B (a compound having 3 or more and less than 10 is denoted as B)
IC50 [4]: 562 nM

CC[C@H](C)[C@@H]1NC(=O)[C@H](CC)N(C)C(=O)C[C@@H](C(=O)N(C)C)N(C)C(=O)[C@H](C2CCCC2)N(C)C(=O)C2(CCC2)NC(=O)[C@H](C)N(C)C(=O)[C@H](CCc2cc(F)c(C(F)(F)F)c(F)c2)NC(=O)CN(C)C(=O)[C@H](Cc2ccc(C(F)(F)F)cc2)N2CC/C=C\C[C@@H](C2=O)N(C)C(=O)CN(C)C1=O [PP1146]
Kd ([1]; SPR, Single Cycle Kinetics): 0.32 nM
NRAS/KRAS (ratio of KD value for NRAS to KD value for KRAS) [2]: A (a compound having 10 or more and less than 20 is denoted as A)
HRAS/KRAS (ratio of KD value for HRAS to KD value for KRAS) [3]: B (a compound having 3 or more and less than 10 is denoted as B)
IC50 [4]: 202 nM

CCC[C@H]1C(=O)N[C@@H](CC(C)C)C(=O)N(CC)CC(=O)N(C)[C@H]2C/C=C\CCN(C2=O)[C@@H](Cc2ccc(C)cc2)C(=O)N(C)CC(=O)N[C@@H](CCc2cc(F)c(C(F)(F)F)c(F)c2)C(=O)N2C[C@H](OCC)C[C@H]2C(=O)NC2(CCC2)C(=O)N(C)[C@@H](C2CCCC2)C(=O)N(C)[C@H](C(=O)N(C)C)CC(=O)N1C [PP2539]
Kd [1, 5]: 4.3 nM
NRAS/KRAS (ratio of KD value with respect to GDP-bound NRAS wild-type protein to KD value with respect to KRAS) [2]: A (a compound having 10 or more and less than 20 is denoted as A)
HRAS/KRAS (ratio of KD value with respect to GDP-bound HRAS wild-type protein to KD value with respect to KRAS) [3]: B (a compound having 3 or more and less than 10 is denoted as B)
IC50 [4]: 330 nM

CCO[C@@H]1C[C@H]2C(=O)N(C)C3(CC(C)(C)C3)C(=O)N(C)[C@@H](C3CCCC3)C(=O)N(C)[C@H](C(=O)N(C)C)CC(=O)N(C)[C@H]3CCC/C=C/c4ccc(cc4)C[C@@H](C(=O)N(C)CC(=O)N[C@@H](CCc4ccc(Cl)c(Cl)c4)C(=O)N2C1)N1CC/C=C\C[C@@H](C1=O)N(C)C(=O)CN(C1CC1)C(=O)[C@H]([C@@H](C)CC)NC3=O [PP3061]
Kd ([1]; SPR, Single Cycle Kinetics): 0.13 nM
NRAS/KRAS (ratio of KD value for NRAS to KD value for KRAS) [2]: A (a compound having 10 or more and less than 20 is denoted as A)
HRAS/KRAS (ratio of KD value for HRAS to KD value for KRAS) [3]: A (a compound having 10 or more and less than 20 is denoted as A)
IC50 [4]: 4.4 nM

CC[C@H](C)[C@@H]1NC(=O)[C@H](COC)N(C)C(=O)C[C@@H](C(=O)N2CCCCC2)N(C)C(=O)[C@H](C2CCCC2)N(C)C(=O)C2(CC(C)(C)C2)NC(=O)[C@@H]2C[C@@H](OC(C)C)CN2C(=O)[C@H](CCc2cc(F)c(C(F)(F)F)c(F)c2)NC(=O)CN(C)C(=O)[C@H](Cc2ccc(C(F)(F)F)cc2)N2CC/C=C\C[C@@H](C2=O)N(C)C(=O)CN(C2CC2)C1=O [PP2667]
Kd [1, 5]: 1.8 nM
NRAS/KRAS (ratio of KD value with respect to GDP-bound NRAS wild-type protein to KD value with respect to KRAS) [2]: A (a compound having 10 or more and less than 20 is denoted as A)
HRAS/KRAS (ratio of KD value with respect to GDP-bound HRAS wild-type protein to KD value with respect to KRAS) [3]: A (a compound having 10 or more and less than 20 is denoted as A)
IC50 [4]: 30.6 nM
